Source: patent publication US5470877A, “Uses of perillic acid methyl ester” (Wisconsin Alumni Research Foundation, priority 1994, dated 1995)

What was measured:
21-26 kDa proteins = assay: Protein isoprenylation inhibition in NIH3T3 cells (SDS-PAGE fluorography); format: cell-based, mouse
Experimental: "Isoprenylation" is the addition of a multiple of the 5 carbon isoprene unit to a protein. Our experiments in isoprenylation are reported at Crowell, et al. 1991, J. Biol. Chem. 266:17679-17685. To test whether a specific monoterpene affects isoprenylation of proteins in cells, […] were incubated with a radioactive isoprene precursor and 0-5 mM of the test monoterpene and then subjected to SDS-PAGE. Because they carried a radioactive label, isoprenylated proteins were visualized by fluorography. As a control, cells were incubated without the monoterpene.
Cells were harvested after trypsin treatment, washed twice with phosphate-buffered saline, suspended in electrophoresis sample buffer (Laemmli, U.K., 1970, Nature 227:680-685), and either analyzed immediately or stored at -20° C. Whole cell extracts were analyzed by SDS-PAGE on 16-cm×18-cm×0.75-mm gels by the method of Laemmli (supra). The acrylamide concentrations were 5% for the stacking gel and 12% for the separating gel. Gels were stained with Coomassie Brilliant Blue, equilibrated for 20 min in Amplify (Amersham Corp.) fluorographic reagent, dried under vacuum at 65° C., and exposed to preflashed Kodak X-Omat AR film as described by Laskey and Mills (1975, Eur. J. Biochem, 56:335-341). Some fluorograms were analyzed further by densitometry. Where indicated, gels were sliced, dissolved at 50° C. for 3 hours in 0.5 ml of water+0.5 ml of Solvable (Amersham), and then analyzed by scintillation spectrometry in 10 ml of Atom light (Amersham) mixture. Protein content was measured by the method of Lowry, et al. (1951, J. Biol. Chem. 193:265-275).
FIG. 1 depicts the structures of certain monoterpenes.
The degree of isoprenylation was evaluated by the amount of labeled protein present in the 21-26 kDa range, as evidenced by fluorography.

[1] = system: DMBA-induced rat mammary carcinomas; assay: Regression of DMBA-induced mammary carcinomas, pair-feeding study; format: in vivo, Wistar-Furth rat; conditions: for Time to Regress (wks): primary carcinoma, footnote: Kaplan-Meier estimate of time when 25% regressed
Experimental: We used Wistar-Furth female rats for in vivo studies. Wistar-Furth female rats were obtained from Harlan Sprague-Dawley, Inc., (Madison, Wis.). All rats, arriving at 43-48 days of age, were housed at four rats per cage in wire-bottom metal cages and all were maintained with a light/dark cycle of 12 hours. Rats were provided Teklad Lab blox chow and acidified water ad libitum.
After one week of acclimation, the carcinogen DMBA was administered to the rats, which were 50-55 days old at this point. The DMBA was dissolved in a stock solution of 20 mg DMBA/ml sesame oil, heated and allowed to cool to room temperature before administration. DMBA (Eastman Kodak, Rochester, N.Y.) was given as a single gastric intubation of 50 mg DMBA/kg rat body weight.
In the pair-feeding study, a group of 70 mammals was treated with DMBA. Beginning four weeks post carcinogen administration, mammals were weighed and palpated weekly. Upon palpation of the first mammary carcinoma (diameter≥3 mm), mammals were randomly assigned to control or 2.5% (w/w) perillyl alcohol diet and pair-fed.
Perillyl alcohol (>96% pure by GC analysis, Aldrich, Milwaukee, Wis.) and Teklad 4% mouse/rat diet meal were thoroughly mixed and stored at -20° C. Fresh diets were made every 7-10 days. All mammals were provided fresh diet daily to minimize evaporation of the monoterpenes. For pair-feeding, the quantity of diet consumed by the monoterpene-fed mammals was measured every 24 hours and the assigned partner was pair-fed accordingly.
In the pair-feeding study, all palpable mammary carcinomas were classified as either "primary" tumors (i.e, the first tumor(s) palpated with a minimum diameter of 3 mm) or "secondary" tumors (i.e. a palpable tumor arising after initial diet assignment). At diet assignment, some mammals had more than one primary tumor. All carcinogen-exposed mammals not bearing a first palpable tumor by week 15 post-carcinogen were removed from the experiment. Complete regression of a tumor was defined as non-palpability for a minimum of three consecutive weeks. All mammals in the pair-feeding study were followed for a minimum of 10 weeks post-diet assignment for tumor growth or regression at primary tumor sites and all other mammary glands. The rats were necropsied if moribund. Complete necropsies were performed on all rats at the termination of the study. Greater than 95% of tumors remaining at the autopsy date were diagnosed as mammary carcinomas based on gross and histopathological criteria.

rat mammary carcinoma = assay: Comparison of dietary perillyl alcohol and perillic acid methyl ester as inducers of rat mammary carcinoma regression; format: in vivo, Wistar-Furth rat; conditions: for no regression (tumors) / no response / partial regression >1/2 original diameter (%) / partial regression >1/2 original diameter (tumors) / small regression response / some growth of tumor: 6 weeks
Experimental: Inbred female Wistar-Furth rats were given 50 mg/kg DMBA at 50-55 days of age. Upon development of a mammary tumor with the largest diameter≥10 mm, the rat was assigned to 0.5% perillic acid methyl ester diet and fed ad libitum. The 0.5% perillic acid methyl ester diet (weight compound/weight ground Teklad rat/mouse 4% meal/chow) was prepared fresh every 7-10 days. Fresh diet was given to rats daily. All rats were weighed and palpated weekly. The study was terminated at 6 weeks after initial diet administration. The following tumor regression data was acquired:
We compared the effects of PAME and POH in terms of their ability to regress rat mammary carcinomas. Table 8 records our comparison. In summary, a 0.5% PAME diet was effective, while a 0.5% POH diet was only 10% effective. Diets of 2% POH were roughly 64-70% effective. While 2% POH is tolerated by a mammal, on a practical level PAME is preferred because a lower dose is sufficient.

HT29 cells = assay: Inhibition of HT29 colon adenocarcinoma cell growth/proliferation; format: cell-based, human
Experimental: We examined the effect of several of the terpenes on certain types of cell growth. […] Additionally, growth of HT29 (human colon adenocarcinoma) cells was inhibited by 80% by 1 mM perillyl alcohol.

[2] = 10% limonene diet or 2.5% POH diet
[3] = 0.5% POH diet, first comparison
[4] = 1.0% POH diet, first comparison
[5] = 1.5% POH diet, first comparison
[6] = 2.0% POH diet, first comparison
[7] = 2.0% POH diet, second comparison

## C=C(C)[C@@H]1CC=C(CO)CC1 [perillyl alcohol]
21-26 kDa proteins; 1 mM, 21-26 kDa range
  ability to inhibit isoprenylation within test panel: greatest ability to inhibit isoprenylation
21-26 kDa proteins; all cell types examined
  inhibition of isoprenylation in all cases examined: inhibition of isoprenylation
[1]; [2]
  Primary carcinoma regression (%): 81%
  Secondary carcinoma regression (%): 0%
  Secondary carcinoma regression (tumors regressed / tumors): 01/1
  Secondary carcinomas/rat: 0.04
[1]; after initial diet assignment
  development of secondary carcinomas: limited the development of secondary carcinomas
[1]
  Time to Regress (wks): 3.6 wks
[1]; listed as POH
  Time to Regress (wks): 3.6 ± 0.3 wks
[1]; to achieve these regression results
  amount of perillyl alcohol needed relative to limonene: 25%
Rat mammary carcinoma; [3]
  no regression (tumors): 18/20
  no response: 1/20
  partial regression >1/2 original diameter (%): 10%
  partial regression >1/2 original diameter (tumors): 2/20
  small regression response: 2/20
  some growth of tumor: 15/20
Rat mammary carcinoma; [4]
  no regression (tumors): 15/20
  no response: 2/20
  partial regression >1/2 original diameter (%): 25%
  partial regression >1/2 original diameter (tumors): 5/20
  small regression response: 2/20
  some growth of tumor: 11/20
Rat mammary carcinoma; [5]
  no regression (tumors): 15/21
  no response: 7/21
  partial regression >1/2 original diameter (%): 29%
  partial regression >1/2 original diameter (tumors): 6/21
  small regression response: 7/21
  some growth of tumor: 4/21
Rat mammary carcinoma; [6]
  no regression (tumors): 6/20
  no response: 1/20
  partial regression >1/2 original diameter (%): 70%
  partial regression >1/2 original diameter (tumors): 14/20
  small regression response: 2/20
  some growth of tumor: 3/20
Rat mammary carcinoma; [7]
  no regression (tumors): 4/11
  no response: 2/11
  partial regression >1/2 original diameter (%): 64%
  partial regression >1/2 original diameter (tumors): 7/11
  small regression response: 1/11
  some growth of tumor: 1/11
Rat mammary carcinoma; 2% POH diets
  effectiveness of diet (%): 64-70%
Rat mammary carcinoma; rats fed PAME or POH diet
  weight loss: did experience weight loss
Rat mammary carcinoma; rats fed a 1% diet
  regression rate: 55%
HT29 cells; 1 = greatest inhibition, 5 = least inhibition
  Rank order, inhibition of HT-29 tumor cell proliferation: 1
HT29 cells; Homo sapiens, HT-29, read-out: IC50 HT29 tumor cell proliferation
  IC50: 50 µM
HT29 cells; Homo sapiens, HT-29, read-out: growth inhibition of HT29 cells
  inhibition at 1000 µM: 80%
HT29 cells; colon adenocarcinoma cells
  HT29 cell growth: regression of cell growth
